Active and inactive are the calls of the source. The calls are words filed in the database; no cut-off is given here.
Assays:
MV4-11 = test: cells; conditions: Homo sapiens, MV4-11, 72 h
Description: Cytotoxicity against human MV4-11 cells assessed as inhibition of cell growth incubated for 72 hrs by MTT assay

Mus musculus [1] = test: In vivo inhibition of HDAC3 in BALB/c mouse xenografted with human HT-29 cells assessed as induction of histone H3 acetylation administered intraperitoneally once every 2 days for 12 times and measured after 24 days by Western blot analysis; assay type: functional; conditions: dose 7.5-15 mg/kg, route ip, time 24.0 day
HT-29 [2] = test: Effect on MEK protein expression in human HT-29 cells at 2 uM incubated for 24 hrs by Western blot analysis; assay type: functional, cell-based
PANC-1 [3] = test: Effect on MEK protein expression in human PANC-1 cells at 2 uM incubated for 24 hrs by Western blot analysis; assay type: functional, cell-based
PANC-1 [4] = test: Induction of apoptosis in human PANC-1 cells assessed as increase in Bax expression at 2 uM incubated for 24 hrs by Western blot analysis; assay type: functional, cell-based
PANC-1 [5] = test: Induction of apoptosis in human PANC-1 cells assessed as increase in cleaved PARP expression level at 2 uM incubated for 24 hrs by Western blot analysis; assay type: functional, cell-based
[6] = Cmax in Sprague-Dawley rat at 15 mg/kg, ip measured after 24 hrs by LC-MS/MS analysis; assay type: ADME, organism-based; conditions: in vivo
HT-29 [7] = test: Inhibition of MAPK signaling pathway in human HT-29 cells assessed as inhibition of C-RAF phosphorylation at Ser338 residue at 2 uM incubated for 24 hrs by Western blot analysis; assay type: cell-based
HT-29 [8] = test: Effect on alpha-tubulin expression in human HT-29 cells at 2 uM incubated for 24 hrs by Western blot analysis; assay type: functional, cell-based
PANC-1 [9] = test: Effect on Histone H3 expression in human PANC-1 cells at 2 uM incubated for 24 hrs by Western blot analysis; assay type: functional, cell-based
A549 = test: cells; conditions: Homo sapiens, A549, 72 h
Description: Cytotoxicity against human A549 cells assessed as inhibition of cell growth incubated for 72 hrs by MTT assay

PANC-1 [10] = test: Cell cycle arrest in human PANC-1 cells assessed as accumulation of cells at G2-M phase at 2 uM incubated for 24 hrs by PI/RNase staining based flow cytometric analysis; assay type: functional
[11] = Toxicity in BALB/c nude mouse xenografted with human HT-29 cells assessed as change in spleen histopathology at 10 to 15 mg/kg, ip administered once daily for 24 days by H&E staining based analysis; assay type: organism-based; conditions: in vivo, 576 h, dose 10-15 mg/kg, time 24 day
[12] = Metabolic stability in mouse liver microsomes assessed as half-life at 1 uM measured upto 40 mins by LC-MS/MS analysis; assay type: ADME, Microsome
L02 = test: cells; conditions: Homo sapiens, L02, 72 h
Description: Cytotoxicity against human L02 cells assessed as inhibition of cell growth incubated for 72 hrs by MTT assay

Mus musculus [13] = test: In vivo inhibition of MAPK signaling pathway in BALB/c mouse xenografted with human HT-29 cells assessed as inhibition of ERK1/2 phosphorylation administered intraperitoneally once every 2 days for 12 times and measured after 24 days by Western blot analysis; assay type: functional; conditions: dose 7.5-15 mg/kg, route ip, time 24.0 day
Histone deacetylase 9 = Histone deacetylase 9 (Homo sapiens, UniProt Q9UKV0); test: Inhibition of HDAC9 (unknown origin)
HT-29 [14] = test: cells; conditions: Homo sapiens, HT-29, 72 h
Description: Cytotoxicity against human HT-29 cells assessed as inhibition of cell growth incubated for 72 hrs by MTT assay

PANC-1 [15] = test: cells; conditions: Homo sapiens, PANC-1, 72 h
Description: Cytotoxicity against human PANC-1 cells assessed as inhibition of cell growth incubated for 72 hrs by MTT assay

[16] = target: T1, Serine/threonine-protein kinase PLK1 (Homo sapiens, UniProt P53350); test: Inhibition of PLK1 (unknown origin)
HT-29 [17] = test: Inhibition of MAPK signaling pathway in human HT-29 cells assessed as inhibition of MEK phosphorylation at 2 uM incubated for 24 hrs by Western blot analysis; assay type: cell-based
HT-29 [18] = test: Induction of apoptosis in human HT-29 cells assessed as apoptotic ratio at 2 uM incubated for 24 hrs by flow cytometric analysis; assay type: functional
PANC-1 [19] = test: Effect on RAS protein expression in human PANC-1 cells at 2 uM incubated for 24 hrs by Western blot analysis; assay type: functional, cell-based
PANC-1 [20] = test: Effect on ERK1/2 protein expression in human PANC-1 cells at 2 uM incubated for 24 hrs by Western blot analysis; assay type: functional, cell-based
PANC-1 [21] = test: Inhibition of MAPK signaling pathway in human PANC-1 cells assessed as inhibition of C-RAF phosphorylation at Ser338 residue at 2 uM incubated for 24 hrs by Western blot analysis; assay type: cell-based
K562 = test: cells; conditions: Homo sapiens, K562, 72 h
Description: Cytotoxicity against human K562 cells assessed as inhibition of cell growth incubated for 72 hrs by MTT assay

A-431 = test: cells; conditions: Homo sapiens, A-431, 72 h
Description: Cytotoxicity against human A-431 cells assessed as inhibition of cell growth incubated for 72 hrs by MTT assay

NCI-H1975 = test: cells; conditions: Homo sapiens, NCI-H1975, 72 h
Description: Cytotoxicity against human NCI-H1975 cells assessed as inhibition of cell growth incubated for 72 hrs by MTT assay

Histone deacetylase 4 = Histone deacetylase 4 (Homo sapiens, UniProt P56524); test: Inhibition of HDAC4 (unknown origin)
HT-29 [22] = test: Effect on Histone H3 expression in tumor of BALB/c mouse xenografted with human HT-29 cells at 7.5 to 15 mg/kg, ip administered once every 2 days for 12 times and measured after 24 days by Western blot analysis; assay type: functional, organism-based; conditions: Neoplasm, dose 7.5-15 mg/kg, time 24.0 day
[23] = Metabolic stability in rat liver microsomes assessed as half-life at 1 uM measured upto 40 mins by LC-MS/MS analysis; assay type: ADME, Microsome
[24] = MRT (0 to infinity) in Sprague-Dawley rat at 15 mg/kg, ip measured after 24 hrs by LC-MS/MS analysis; assay type: ADME, organism-based; conditions: in vivo
[25] = Toxicity in BALB/c nude mouse xenografted with human HT-29 cells assessed as change in main organs at 7.5 to 15 mg/kg, ip administered once every 2 days for 12 times for 24 days by H&E staining based analysis; assay type: organism-based; conditions: in vivo, 576 h, dose 7.5-15 mg/kg, time 24 day
Mus musculus [26] = test: In vivo inhibition of HDAC3 in BALB/c mouse xenografted with human HT-29 cells assessed as induction of alpha-tubulin acetylation administered intraperitoneally once every 2 days for 12 times and measured after 24 days by Western blot analysis; assay type: functional; conditions: dose 7.5-15 mg/kg, route ip, time 24.0 day
PANC-1 [27] = test: Induction of apoptosis in human PANC-1 cells assessed as increase in cleaved caspase-3 expression level at 2 uM incubated for 24 hrs by Western blot analysis; assay type: functional, cell-based
[28] = target: T1, Serine/threonine-protein kinase PLK1; test: Inhibition of PLK1 (unknown origin) at 10 uM relative to control
HT-29 [29] = test: Antitumor activity against human HT-29 xenografted in BALB/c nude mouse assessed as tumor growth inhibition at 15 mg/kg, ip administered once every 2 days for 12 times for 24 days relative to control; assay type: functional; conditions: HT-29, 576 h, time 24 day, read-out: TGI
PANC-1 [30] = test: Effect on alpha-tubulin expression in human PANC-1 cells at 2 uM incubated for 24 hrs by Western blot analysis; assay type: functional, cell-based
PANC-1 [31] = test: Induction of apoptosis in human PANC-1 cells assessed as increase in cleaved caspase-9 expression level at 2 uM incubated for 24 hrs by Western blot analysis; assay type: functional, cell-based
HT-29 [32] = test: Effect on alpha-tubulin expression in tumor of BALB/c mouse xenografted with human HT-29 cells at 7.5 to 15 mg/kg, ip administered once every 2 days for 12 times and measured after 24 days by Western blot analysis; assay type: functional, organism-based; conditions: Neoplasm, dose 7.5-15 mg/kg, time 24.0 day

T1 sequence (P53350 whole entry): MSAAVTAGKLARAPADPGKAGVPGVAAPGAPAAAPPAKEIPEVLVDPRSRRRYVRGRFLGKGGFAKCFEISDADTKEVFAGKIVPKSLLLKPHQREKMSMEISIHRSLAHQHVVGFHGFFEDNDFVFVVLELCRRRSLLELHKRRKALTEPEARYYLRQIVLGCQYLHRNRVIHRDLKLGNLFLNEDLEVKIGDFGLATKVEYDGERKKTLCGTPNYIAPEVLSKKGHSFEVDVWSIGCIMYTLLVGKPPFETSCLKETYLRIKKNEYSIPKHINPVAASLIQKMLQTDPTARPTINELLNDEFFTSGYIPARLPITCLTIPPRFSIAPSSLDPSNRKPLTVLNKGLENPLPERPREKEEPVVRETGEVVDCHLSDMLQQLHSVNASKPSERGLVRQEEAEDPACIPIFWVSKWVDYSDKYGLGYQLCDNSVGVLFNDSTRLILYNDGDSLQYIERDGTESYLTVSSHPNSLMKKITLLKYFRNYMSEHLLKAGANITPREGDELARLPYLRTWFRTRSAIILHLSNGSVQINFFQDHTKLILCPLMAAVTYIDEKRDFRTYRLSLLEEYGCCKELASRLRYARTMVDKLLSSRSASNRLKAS
Histone deacetylase 9, sequence (Q9UKV0 whole entry): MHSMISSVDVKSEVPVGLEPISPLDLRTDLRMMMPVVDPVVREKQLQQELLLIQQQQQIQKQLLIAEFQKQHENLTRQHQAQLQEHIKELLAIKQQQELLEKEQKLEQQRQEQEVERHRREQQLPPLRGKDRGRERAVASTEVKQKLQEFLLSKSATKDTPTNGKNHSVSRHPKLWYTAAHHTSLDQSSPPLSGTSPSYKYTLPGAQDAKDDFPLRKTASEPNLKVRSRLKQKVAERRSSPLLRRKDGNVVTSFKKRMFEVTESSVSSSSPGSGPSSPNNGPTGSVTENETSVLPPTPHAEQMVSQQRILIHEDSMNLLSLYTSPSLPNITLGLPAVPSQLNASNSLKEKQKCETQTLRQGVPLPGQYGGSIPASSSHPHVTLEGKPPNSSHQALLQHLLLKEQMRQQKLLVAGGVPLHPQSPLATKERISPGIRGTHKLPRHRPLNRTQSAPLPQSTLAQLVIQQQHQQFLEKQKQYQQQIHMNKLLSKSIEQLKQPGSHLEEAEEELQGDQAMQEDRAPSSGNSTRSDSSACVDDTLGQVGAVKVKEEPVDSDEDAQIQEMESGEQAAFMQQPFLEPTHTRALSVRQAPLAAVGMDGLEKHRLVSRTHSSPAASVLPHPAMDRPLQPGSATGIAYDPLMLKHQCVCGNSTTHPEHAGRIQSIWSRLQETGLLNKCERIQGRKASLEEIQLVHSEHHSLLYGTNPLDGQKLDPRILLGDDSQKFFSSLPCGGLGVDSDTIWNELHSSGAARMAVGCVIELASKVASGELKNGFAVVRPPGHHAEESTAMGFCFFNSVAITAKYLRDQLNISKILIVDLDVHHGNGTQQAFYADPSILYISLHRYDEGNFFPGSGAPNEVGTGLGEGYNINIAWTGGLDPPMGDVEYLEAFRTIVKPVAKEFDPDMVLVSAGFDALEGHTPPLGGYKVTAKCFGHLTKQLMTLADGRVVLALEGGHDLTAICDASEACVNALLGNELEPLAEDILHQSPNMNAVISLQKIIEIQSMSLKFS
Histone deacetylase 4, sequence (P56524 whole entry): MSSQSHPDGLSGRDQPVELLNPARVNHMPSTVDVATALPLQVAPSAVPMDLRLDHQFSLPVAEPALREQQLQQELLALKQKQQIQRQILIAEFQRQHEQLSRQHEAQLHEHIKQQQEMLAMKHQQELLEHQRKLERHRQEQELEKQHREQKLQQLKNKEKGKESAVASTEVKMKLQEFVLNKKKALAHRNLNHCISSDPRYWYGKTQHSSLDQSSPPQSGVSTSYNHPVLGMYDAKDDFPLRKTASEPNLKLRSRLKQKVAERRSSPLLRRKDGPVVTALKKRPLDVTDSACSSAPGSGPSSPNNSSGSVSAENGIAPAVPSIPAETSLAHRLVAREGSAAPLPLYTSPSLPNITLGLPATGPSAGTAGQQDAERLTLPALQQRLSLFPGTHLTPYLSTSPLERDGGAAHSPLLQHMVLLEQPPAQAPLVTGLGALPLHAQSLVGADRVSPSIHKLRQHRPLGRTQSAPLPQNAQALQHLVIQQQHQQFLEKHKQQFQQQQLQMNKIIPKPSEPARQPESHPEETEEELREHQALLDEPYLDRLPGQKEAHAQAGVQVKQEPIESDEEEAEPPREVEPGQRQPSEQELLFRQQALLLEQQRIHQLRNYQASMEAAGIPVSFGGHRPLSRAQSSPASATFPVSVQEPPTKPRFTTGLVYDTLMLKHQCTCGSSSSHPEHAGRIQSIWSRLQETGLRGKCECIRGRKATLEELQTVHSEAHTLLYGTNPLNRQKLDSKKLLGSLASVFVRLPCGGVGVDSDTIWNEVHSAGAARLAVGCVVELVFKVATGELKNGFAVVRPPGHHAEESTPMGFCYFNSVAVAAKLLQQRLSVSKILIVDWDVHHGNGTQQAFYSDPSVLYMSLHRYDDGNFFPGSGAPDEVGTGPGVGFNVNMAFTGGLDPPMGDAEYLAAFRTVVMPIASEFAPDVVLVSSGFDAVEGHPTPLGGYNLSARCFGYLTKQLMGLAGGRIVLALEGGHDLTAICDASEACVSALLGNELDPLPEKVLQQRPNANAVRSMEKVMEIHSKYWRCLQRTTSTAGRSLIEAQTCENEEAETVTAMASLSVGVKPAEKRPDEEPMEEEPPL

Compound: COc1cc(OC)c(/C=C/S(=O)(=O)Cc2ccc(OC)c(NCC(=O)NO)c2)c(OC)c1
- IC50 (MV4-11): 80 nM
- inhibition (Mus musculus [1]): Dose-Dependent Effect
- Activity (HT-29 [2]): inactive
- Activity (PANC-1 [3]): inactive
- Activity (PANC-1 [4]): Active
- Activity (PANC-1 [5]): Active
- Cmax [6]: 2800 ng/mL
- inhibition (HT-29 [7]): Active
- Activity (HT-29 [8]): inactive
- Activity (PANC-1 [9]): inactive
- IC50 (A549): 90 nM
- Activity (PANC-1 [10]): Active
- Activity [11]: Non-Toxic
- half-life at 1 µM [12]: 28.6 min
- IC50 (L02): > 40000 nM
- inhibition (Mus musculus [13]): Dose-Dependent Effect
- IC50 (Histone deacetylase 9): 83.7 nM
- IC50 (HT-29 [14]): 40 nM
- IC50 (PANC-1 [15]): 50 nM
- IC50 [16]: 17.8 nM
- inhibition [16]: Dose-Dependent Effect
- inhibition (HT-29 [17]): Active
- Activity (HT-29 [18]): 51.5%
- Activity (PANC-1 [19]): inactive
- Activity (PANC-1 [20]): inactive
- inhibition (PANC-1 [21]): Active
- IC50 (K562): 20 nM
- IC50 (A-431): 550 nM
- IC50 (NCI-H1975): 50 nM
- IC50 (Histone deacetylase 4): 75 nM
- Activity (HT-29 [22]): inactive
- half-life at 1 µM [23]: 5.52 min
- MRT inf [24]: 80.4 min
- Activity [25]: Non-Toxic
- inhibition (Mus musculus [26]): Dose-Dependent Effect
- Activity (PANC-1 [27]): Active
- inhibition [28]: 100%
- inhibition in vivo at 15 mg/kg (HT-29 [29]): 75.2%
- Activity (PANC-1 [30]): inactive
- Activity (PANC-1 [31]): Active
- Activity (HT-29 [32]): inactive

From ChEMBL document CHEMBL5537193, “Multitargeting HDAC Inhibitors Containing a RAS/RAF Protein Interfering Unit” (J Med Chem, 2024)
